The source of these data is ChEMBL document CHEMBL1156904, “Part II: piperazinyl-glutamate-pyridines as potent orally bioavailable P2Y12 antagonists for inhibition of platelet aggregation” (Bioorg Med Chem Lett, 2010).

The target of series [1] is P2Y purinoceptor 12 (Homo sapiens, UniProt Q9H244). Kind of series: Inhibition of human P2Y12 receptor expressed in CHO cells.
Series [2] can be described thus: Antiplatelet activity in human platelet rich plasma assessed as inhibition of ADP-induced platelet aggregation. It counts as functional.
Series [3] in a line: Antiplatelet activity in human platelet rich plasma assessed as inhibition of ADP-induced platelet aggregation relative to AZD-6140. It is filed as functional.
Series [4] can be described thus: Metabolic stability in rat microsomes. It counts as ADME, Microsome.
Series [5] in a line: Metabolic stability in human microsomes. It counts as ADME, Microsome.

Chain of P2Y purinoceptor 12 (Q9H244 whole entry): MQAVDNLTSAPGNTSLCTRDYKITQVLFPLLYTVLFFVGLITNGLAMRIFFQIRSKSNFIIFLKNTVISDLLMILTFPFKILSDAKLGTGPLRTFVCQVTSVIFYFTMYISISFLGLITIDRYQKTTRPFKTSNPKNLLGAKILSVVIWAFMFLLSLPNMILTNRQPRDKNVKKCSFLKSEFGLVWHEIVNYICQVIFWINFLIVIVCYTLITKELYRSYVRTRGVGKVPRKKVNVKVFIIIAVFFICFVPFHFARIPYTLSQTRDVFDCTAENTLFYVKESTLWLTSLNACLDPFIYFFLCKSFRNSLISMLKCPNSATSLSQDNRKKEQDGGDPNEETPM

Usually Ki stands for a measure of affinity in units of concentration, obtained from inhibition or displacement. A low value points to a stronger hold on the target. What is called IC50 is the concentration needed to halve the response being measured. As for `CCCCCOC(=O)N1CCN(C(=O)C(CCC(=O)O)NC(=O)c2cc(N3CCC(O)C3)cc(-c3ccccc3)n2)CC1` (mixture of isomers), the Ki in series [1] is 13 nM. Besides, the IC50 in series [2] amounted to 7100 nM. Further, in series [3], the “fold change (FC)” value came to 3.9. Further, the Stability result in series [4] and in series [5] was “Stable” throughout.
On to `CCCCCOC(=O)N1CCN(C(=O)[C@H](CCC(=O)O)NC(=O)c2cc(N3CCN(CCOC)CC3)cc(-c3ccccc3)n2)CC1`, for which the affinity in series [1] corresponds to a Ki of 8.3 nM. Further, in series [2], the IC50 was 1100 nM. In series [3], the “fold change (FC)” value is 2.1. The Stability entry in series [4] and in series [5] was “Stable” each time.
As for `CCCCCOC(=O)N1CCN(C(=O)[C@H](CCC(=O)O)NC(=O)c2cc(N3CCC[C@H](O)C3)cc(-c3ccccc3)n2)CC1`, affinity in series [1] was put at a Ki of 18 nM. Also, the IC50 in series [2] stood at 2400 nM. Moreover, in series [3], the “fold change (FC)” value was 3.7. The Stability entry in series [4] and in series [5] was “Stable” in each case.
Take `CCCCCOC(=O)N1CCN(C(=O)[C@H](CCC(=O)O)NC(=O)c2cc(N3CCN(C(=O)CN(C)C)CC3)cc(-c3ccccc3)n2)CC1`: in series [1], the Ki stood at 2.8 nM. Moreover, the IC50 in series [2] was 710 nM. Also, in series [3], the “fold change (FC)” value is 2.5. Further, the Stability entry in series [4] and in series [5] was “Stable” throughout.
Regarding `CCCCCOC(=O)N1CCN(C(=O)[C@H](CCC(=O)O)NC(=O)c2cc(N3CCC(CN)CC3)cc(-c3ccccc3)n2)CC1`, the inhibition constant Ki in series [1] turned out to be 15 nM. In series [2], the IC50 turned out to be 780 nM. The “fold change (FC)” value in series [3] worked out at 0.62. For the same compound, the Stability result in series [4] and in series [5] was “Stable” in each case.
For the compound `CCCCCOC(=O)N1CCN(C(=O)[C@H](CCC(=O)O)NC(=O)c2cc(N3CCN(CC(=O)N(CC)CC)CC3)cc(-c3ccccc3)n2)CC1`, affinity in series [1] was put at a Ki of 5.9 nM. In addition, the half-maximal inhibitory concentration (IC50) in series [2] was determined as 2900 nM. For the same compound, the “fold change (FC)” value in series [3] was determined as 3.2. The Stability entry in series [4] and in series [5] was “Stable” each time.
`CCCCCOC(=O)N1CCN(C(=O)[C@H](CCC(=O)O)NC(=O)c2cc(N3CC(CNC)C3)cc(-c3ccccc3)n2)CC1` showed a Ki in series [1] of 7.1 nM. Also, in series [2], the IC50 was found to be 1300 nM. Also, the “fold change (FC)” value in series [3] is recorded as 1.9. The Stability entry in series [4] and in series [5] was “Stable” in each case.
With `CCCCCOC(=O)N1CCN(C(=O)[C@H](CCC(=O)O)NC(=O)c2cc(N3CCN(C(=O)C(C)C)CC3)cc(-c3ccccc3)n2)CC1`, in series [1], the affinity, expressed as Ki, was 16 nM. Moreover, in series [2], the IC50 was found to be 5000 nM. In addition, in series [3], the “fold change (FC)” value was 6.6. Also, the Stability result in series [4] and in series [5] was “Stable” in each case.
`CCCCCOC(=O)N1CCN(C(=O)[C@H](CCC(=O)O)NC(=O)c2cc(N3CC(C(=O)NCC)C3)cc(-c3ccccc3)n2)CC1` displayed a Ki in series [1] of 2 nM. Further, in series [2], the IC50 stood at 1800 nM. The “fold change (FC)” value in series [3] worked out at 1.5. For the same compound, the Stability entry in series [4] and in series [5] was “Stable” each time.
In turn, `CCCCOC(=O)N1CCN(C(=O)[C@H](CCC(=O)O)NC(=O)c2cc(N3CCC(C(=O)NC(C)C)CC3)cc(-c3ccccc3)n2)CC1` gave a Ki in series [1] of 4.3 nM. For the same compound, in series [2], the IC50 is 620 nM. The “fold change (FC)” value in series [3] came to 0.82. Moreover, the Stability entry in series [4] and in series [5] was “Stable” in each case.
In series [1], `CCCCOC(=O)N1CCN(C(=O)[C@H](CCC(=O)O)NC(=O)c2cc(N3CCC(CN(C)C)CC3)cc(-c3ccccc3)n2)CC1` came in with a Ki of 3.2 nM. In addition, the IC50 in series [2] came to 890 nM. Also, in series [3], the “fold change (FC)” value is on record as 1.3. In addition, the Stability entry in series [4] and in series [5] was “Stable” throughout.
Turning to `CCCCCOC(=O)N1CCN(C(=O)[C@H](CCC(=O)O)NC(=O)c2cc(N3CCCC(CN4CCCC4=O)C3)cc(-c3ccccc3)n2)CC1` (stereo not given in full), the Ki in series [1] is 10 nM. Moreover, in series [2], the IC50 was 2600 nM. In series [3], the “fold change (FC)” value is recorded as 3.8. Also, the Stability result in series [4] and in series [5] was “Stable” each time.
In series [1], `CCCCOC(=O)N1CCN(C(=O)[C@H](CCC(=O)O)NC(=O)c2cc(N3CCC(CN4CCCC4=O)CC3)cc(-c3ccccc3)n2)CC1` registered an inhibition constant Ki of 0.79 nM. For the same compound, the half-inhibitory concentration (IC50) in series [2] was 1100 nM. For the same compound, the “fold change (FC)” value in series [3] came to 1.5. The Stability result in series [4] and in series [5] was “Stable” each time.
For `CCCCOC(=O)N1CCN(C(=O)[C@H](CCC(=O)O)NC(=O)c2cc(N3CCC(CNCC)CC3)cc(-c3ccccc3)n2)CC1`, in series [1], the Ki came out at 3.8 nM. Besides, in series [2], the IC50 was 1300 nM. The “fold change (FC)” value in series [3] is 1.4. For the same compound, the Stability entry in series [4] and in series [5] was “Stable” in each case.
For `CCCCOC(=O)N1CCN(C(=O)[C@H](CCC(=O)O)NC(=O)c2cc(N3CCC(C(=O)N(C)C)CC3)cc(-c3ccccc3)n2)CC1`, the affinity in series [1], expressed as Ki, was 2.6 nM. Besides, the IC50 in series [2] was found to be 630 nM. Also, in series [3], the “fold change (FC)” value was 0.53. For the same compound, the Stability entry in series [4] and in series [5] was “Stable” throughout.
In the case of `CCCCCOC(=O)N1CCN(C(=O)[C@H](CCC(=O)O)NC(=O)c2cc(N3CCN(C(=O)N(CC)CC)CC3)cc(-c3ccccc3)n2)CC1`, in series [1], the affinity, expressed as Ki, was 12 nM. Moreover, the IC50 in series [2] was found to be 3200 nM. Moreover, the “fold change (FC)” value in series [3] turned out to be 4.6. The Stability entry in series [4] and in series [5] was “Stable” throughout.
Consider `CCCCCOC(=O)N1CCN(C(=O)[C@H](CCC(=O)O)NC(=O)c2cc(N3CC[C@@H](C(=O)N(C)C)C3)cc(-c3ccccc3)n2)CC1`, for which affinity in series [1] was put at a Ki of 24 nM. In addition, in series [2], the IC50 is 3600 nM. The “fold change (FC)” value in series [3] turned out to be 3.8. The Stability entry in series [4] and in series [5] was “Stable” each time.
`CCCCCOC(=O)N1CCN(C(=O)[C@H](CCC(=O)O)NC(=O)c2cc(N3CCN(CC(=O)N4CCCC4)CC3)cc(-c3ccccc3)n2)CC1` displayed an inhibitory constant (Ki) in series [1] of 5.2 nM. For the same compound, the half-inhibitory concentration (IC50) in series [2] was determined as 1600 nM. In series [3], the “fold change (FC)” value stood at 2.2. For the same compound, the Stability entry in series [4] and in series [5] was “Stable” throughout.
Take `CCCCCOC(=O)N1CCN(C(=O)[C@H](CCC(=O)O)NC(=O)c2cc(N3CC[C@H](C(=O)N4CCCC4)C3)cc(-c3ccccc3)n2)CC1`: in series [1], the inhibition constant (Ki) was determined as 1.7 nM. The half-maximal inhibitory concentration (IC50) in series [2] was determined as 2600 nM. Also, the “fold change (FC)” value in series [3] amounted to 2.8. Moreover, the Stability result in series [4] and in series [5] was “Stable” each time.
`CCCCCOC(=O)N1CCN(C(=O)[C@H](CCC(=O)O)NC(=O)c2cc(N3CCCC(CNC(C)=O)C3)cc(-c3ccccc3)n2)CC1` (stereo not given in full) returned a Ki in series [1] of 9.9 nM. Moreover, the IC50 in series [2] was determined as 2900 nM. The “fold change (FC)” value in series [3] is on record as 3.4. Also, the Stability result in series [4] and in series [5] was “Stable” each time.
`CCCCCOC(=O)N1CCN(C(=O)[C@H](CCC(=O)O)NC(=O)c2cc(N3CCC(CNC(C)=O)CC3)cc(-c3ccccc3)n2)CC1`: the Ki in series [1] is 25 nM. Also, the IC50 in series [2] came to 6800 nM. The “fold change (FC)” value in series [3] was found to be 3.9. Further, the Stability result in series [4] and in series [5] was “Stable” each time.
